Reference: EP0562849A2, “Steroid derivatives” (priority 1992, dated 1993)
Values joined by “and” are separate entries in the source; they are usually repeats but may differ in a detail not shown here. Equal values may be shown once. Read-outs that look alike come from different tables or passages of the source.

Columns and labels:
[1] = test system: Syrian Golden hamsters; experiment: In vivo serum cholesterol lowering in hamsters fed a cholesterol test diet; settings: for inhibition in vivo at 100 mg/kg/day: Mesocricetus auratus, feed or water, 168 h, read-out: Percent Lowering of Cholesterol from Control Value Mean; for Serum Cholesterol Mean: 0.2% (w/w) in Cholesterol Test Diet for one week, equivalent to 100 mg/kg/day, groups of six, control mean 337
Experimental: Syrian Golden hamsters were fed a cholesterol test diet made of 10% coconut oil and 0.12% cholesterol (by weight) in Purina 5001 Rodent Chow to induce hypercholesteriolemia.
After two weeks on the cholesterol test diet the hamsters were bled from the orbital sinium under light CO2 anesthesia. Serum was prepared and analyzed for cholesterol using a commercial test kit (Cholesterol High Performance, Single Vial™, product of Boehringer Mannheim Corp., Indianapolis, IN, USA). The hamsters were separated into groups of six animals, such that each group had approximately the same mean serum cholesterol levels. Selected compounds of the invention were incorporated into the Cholesterol Test Diet at 0.2% (w/w) and fed to the hamsters for one week. A control group of hamsters continued on the Cholesterol Test Diet during the same one-week period. The dose of test compounds of the invention was equivalent to 100 mg/kg/day based on the weight of the hamsters and their diet consumption. Upon completion of the test period, the animals were bled and serum cholesterol determined as above.
Mean serum cholesterol values from the test hamsters were compared to values from the control group and tested for significance at the Z.05 level using Dunnett's test.

[2] = test system: human LDL receptor promoter; experiment: in vitro Luciferase Activity Test (LDL receptor promoter-luciferase reporter in recombinant CHO cells); type: cell-based; parameters: MED: unit not given here; settings: for Emax: Homo sapiens, CHO, read-out: MA%; for Emax / MA%: maximum activity (%) over control; for MED: minimum effective dose (molar concentration, unit not given), 24 hr, assay medium with 0.5 µg/ml 25-hydroxycholesterol; for RED: relative effective dose compared to compound of Example 4, below one = more active
Experimental: A 1546 base pair sequence of the human LDL receptor promoter was amplified using the polymerase chain reaction. A reaction mixture containing 20 pMoles each of the synthetic oligonucleotides 5'-[…]-3' (Seq. I.D. No: 1) and 5'-AAG-[…]-3', (Seq. I.D. No:2) 1 µg human genomic DNA purified from the adenocarcinoma cell line P3UCLA, 200 µM each of dATP, dGTP, dCTP, and TTP, 2.5 units of Taq DNA polymerase, 10mM Tris-HCI pH 8.3, 50 mM KCI, […], 0.1% gelatin in a final volume of 100 µl was subjected to 30 cycles of 15 sec at 96°C, 30 sec at 55°C, and 1 min at 72°C. The material was subject to gel electrophoresis on a 1% agarose gel and the 1546 base pair band was isolated and restriction enzyme digested with Hind III and Nde I. This fragment was ligated into the plasmid pSP72 (ProMega Biotech), which had previously been restriction enzyme nuclease digested with Hind III and Nde I. The resulting vector, pNLDLRP, was restriction endonulease digested with Ndel and Hind III and the material was again run on a 1% agarose gel to reisolate the 1546 bp LDL receptor sequence.
Plasmid vector PSv2 was constructed by digesting plasmid pSv2-globin with Hind III and Bgl II then ligating an Nrul-Xhol linker into the vector. Plasmid pSv2 globin is disclosed in U.S. Patent No. 4,775,624, the entire teaching of which is herein incorporated by reference. The linker contained the following sequences: [formula] (Seq. I.D. No: 3), and [formula] ' (Seq. I.D. No:4).
The resulting vector was designated pSv2-H NXB because it contained a […], an Nrul site, an Xhol site and a Bgl site. The Hind III-Bgl II fragment of plasmid pAlc4(NRRL B-18783), which contains the firefly luciferase gene, was then ligated into the Hin III-Bgl site of plasmid pSv2-HNXB. A neomycin resistance-conforming gene was then ligated into the Bam HI site of the resultant plasmid to form plasmid pSv2.
A 1546 base pair fragment was isolated and cloned into a Ndel and Hind III (partial) restriction digested vector pSv2 containing the firefly luciferase reporter gene and a gene for neomycin resistance. The resulting vector, pLDL-Luc1 Neo-10, contains the human LDL receptor promoter driving expression of the firefly luciferase gene, a gene coding for neomycin resistance, ampicillin resistant marker and an origin of replication.
Plasmid pLDL-Luc 1 Neo-10 was used to stably transfect Chinese Hamster Ovary cells using a Lipofection Reagent kit and procedure from Gibco BRL Research Products Division Life Technologies Inc. Transformants were selected by picking individual colonies grown in Dulbecco's modified Eagle's medium supplimented with 10% fetal bovine serum and containing 500 µg per ml […]. […] Clone S27/B30 was used for subsequent screening.
In developing a cell based screen it is important to have a negative control. The viral SV40 promoter is ideal for this purpose in that it has a number of SP1 elements that enhance gene transcription. These elements are not under the control of end product repression; but they do have a high degree of sequence homology with the 16 base pair long sterol response element found in the LDL receptor promoter. The SV40 promoter should therefore be a sensitive mechanism to screen out agents that induce nonspecific transcription.
Chinese Hamster Ovary cells were stably cotransfected with a vector pSV2AL-A 5' containing the SV40 promoter driving expression of the firefly luciferase gene and a second vector pSV2 NeoBam containing a neomycin resistant marker. Transfections were carried out using the Lipofectin Reagent kit and procedure from Gibco BRL Research Products Division Life Technologies Inc. Transformants were selected by picking individual colonies grown in Dulbecco's modified Eagle's medium supplemented with 10% fetal bovine serum and containing 500 µg per ml of geneticin. Individual clones were selected, lysed and assayed for luciferase production. […]

[3] = hamsters, 0.2% (w/w) in diet for one week (100 mg/kg/day), negative values = serum cholesterol increased relative to control
[4] = NA is not active, 30% luciferase activity cutoff point (footnote 1)
[5] = tests using 30% luciferase activity cutoff point (footnote 1)
[6] = 30% luciferase activity cutoff point (footnote 1)
[7] = 15% luciferase activity cutoff point (footnote 2)
[8] = tests using 15% luciferase activity cutoff point (footnote 2)

| Molecule | Serum Cholesterol Mean ([1]; hamsters) [mg/dL] | Emax [2, 4] [%] | MED [2, 5] | RED [2, 6] | further results |
| --- | --- | --- | --- | --- | --- |
| C=CC[C@H]1C2CC[C@H]3[C@@H]4CC[C@H]([C@@](C)(O)CCCC(C)C)[C@@]4(C)CC[C@@H]3[C@@]2(C)CC[C@H]1O (stereo partly drawn) [(13), (3a,4a)-4-(2-propenyl)cholestane-3,20-diol] | 253 |  |  |  | inhibition in vivo at 100 mg/kg/day [1, 3]: 25.1% |
| C=CC[C@@H]1[C@H](OC(=O)CCCCCCCCCCCCCCCCC)CC[C@@]2(C)[C@H]1CC[C@@H]1[C@@H]2CC[C@]2(C)[C@@H]([C@H](C)CCCC(C)C)CC[C@@H]12 [Example 99, (3a,4a,5a)-4-(2-propenyl)cholestan-3-ol octadecanoate (ester)] | 328 |  |  |  | Percent Lowering of Cholesterol from Control Value Mean [1, 3]: 2.7% |
| CC(C)CCC[C@@H](C)[C@H]1CC[C@H]2[C@@H]3CCC4[C@H](Cc5ccccc5)C(=O)CC[C@]4(C)[C@H]3CC[C@]12C (stereo partly drawn) [(19), 4a-benzylcholestan-3-one] | 312 |  |  |  | Percent Lowering of Cholesterol from Control Value Mean [1, 3]: 7.5% |
| (3β,4α,5α,20β)-4-(2-propenyl)cholestan-3-amine [(22)] | 345 |  |  |  | Percent Lowering of Cholesterol from Control Value Mean [1, 3]: -2.4% |
| C=CC[C@@H]1[C@@H](O)CC[C@@]2(C)[C@H]1CC[C@@H]1[C@@H]2CC[C@]2(C)[C@@H]([C@H](C)CCCC(C)C)CC[C@@H]12 [Example 80, (3β,4α,5α,20β)-4-(2-propenyl)cholestan-3-ol] | 269 |  |  |  | inhibition in vivo at 100 mg/kg/day [1, 3]: 20.2% |
| CC(C)CCC[C@@H](C)[C@H]1CC[C@H]2[C@@H]3CCC4[C@H](Cc5ccccc5)C(=O)CC[C@]4(C)[C@H]3CC[C@]12C (stereo partly drawn) [(5), 4a-benzylcholestan-3-one] | 202 |  |  |  | Percent Lowering of Cholesterol from Control Value Mean [1, 3]: 40.2% |
| C=CC[C@@H]1[C@H](O)CC[C@@]2(C)[C@H]1CC[C@@H]1[C@@H]2CC[C@]2(C)[C@@H]([C@H](C)CCCC(C)C)CC[C@@H]12 [(4), (3α,4α,5α,20β)-4-(2-propenyl)cholestan-3-ol] | 198 |  |  |  | Percent Lowering of Cholesterol from Control Value Mean [1, 3]: 41.4% |
| CC(C)CCC[C@@H](C)[C@H]1CC[C@H]2[C@@H]3CC[C@H]4C[C@H](O)CC[C@]4(C)[C@H]3CC[C@]12C [(24), 5a-cholestan-3a-ol, reference compound] | 422 |  |  |  | inhibition in vivo at 100 mg/kg/day [1]: -25% |
| C=CC[C@@H]1[C@H](O)CC[C@@]2(C)[C@H]1CC[C@@H]1[C@@H]2CC[C@]2(C)[C@@H]([C@H](C)CC[C@@H](CC)C(C)C)CC[C@@H]12 [Example 96, (3a, 4a, 5a)-4-(2-propenyl)-stigmastan-3-ol] |  | 93 | 8.3 | 0.73 |  |
| CC=CC[C@@H]1[C@@H](O)CC[C@@]2(C)[C@H]1CC[C@@H]1[C@@H]2CC[C@]2(C)[C@@H]([C@H](C)CCCC(C)C)CC[C@@H]12 [(12), (3β,4α,5α)-4-(2-butenyl)cholestan-3-ol] | 245 |  |  |  | inhibition in vivo at 100 mg/kg/day [1, 3]: 27.4% |
| CC(C)CCC[C@@H](C)[C@H]1CC[C@H]2[C@@H]3CC[C@H]4C[C@H](O)[C@H](Cc5ccc(F)cc5)C[C@]4(C)[C@H]3CC[C@]12C [Example 79, (2a, 3a, 5a)-2-[(4-fluorophenyl)methyl]cholestan-3-ol] |  | 29 | 40.3 | 5.4 |  |
| CC(C)CCC[C@@H](C)[C@H]1CC[C@H]2[C@@H]3CC[C@H]4[C@H](CC=C(Br)Br)[C@H](O)CC[C@]4(C)[C@H]3CC[C@]12C [(14), (3a,4a,5a)-4-(3,3-dibromo-2-propenyl)cholestan-3-ol] | 259 |  |  |  | inhibition in vivo at 100 mg/kg/day [1, 3]: 23.2% |
| CC(C)CCC[C@@H](C)[C@H]1CC[C@H]2[C@@H]3CCC4[C@H](Cc5ccccc5)[C@H](O)CC[C@]4(C)[C@H]3CC[C@]12C (stereo partly drawn) [Example 22, 4a-benzylcholestan-3a-ol] |  | 18 |  |  |  |
| C/C=C/C[C@@H]1[C@@H](NC(C)=O)CC[C@@]2(C)[C@H]1CC[C@@H]1[C@@H]2CC[C@]2(C)[C@@H]([C@H](C)CCCC(C)C)CC[C@@H]12 [Example 10, [4a(E),5a]-4-(2-butenyl)-3b acetamidocholestane] |  | 55 | 10.3 | 4.5 |  |
| C=CC[C@@H]1[C@H](O)CC[C@@]2(C)[C@H]1CC[C@@H]1[C@@H]2CC[C@]2(C)[C@@H]([C@H](C)CCCN(C)C)CC[C@@H]12 [Example 44, 4a-(2-propenyl)-cholan-24-N,N-dimethylamino-3a-ol] |  |  |  |  | Emax [2, 7]: 62%; MA% [2, 7]: 78%; MA% [2, 4]: 77% and 56% |
| C=CC[C@@H]1[C@H](O)CC[C@@]2(C)[C@H]1CC[C@@H]1[C@@H]2CC[C@]2(C)[C@@H]([C@H](C)/C=C/[C@@H](CC)C(C)C)CC[C@@H]12 [Example 98, (3a, 4a, 5a, 22E)-4-(2-propenyl)-stigmast-22-en-3-ol] |  | 66 | 22 | 2.0 |  |
| C/C=C/C[C@@H]1[C@H](NC(C)=O)CC[C@@]2(C)[C@H]1CC[C@@H]1[C@@H]2CC[C@]2(C)[C@@H]([C@H](C)CCCC(C)C)CC[C@@H]12 [Example 9, [4a(E),5a]-4-(2-butenyl)-3a acetamidocholestane] |  | 60 | 2.0 | 0.88 |  |
| CC(C)CCC[C@@H](C)[C@H]1CC[C@H]2[C@@H]3CCC4[C@H](Cc5ccc(C(=O)O)cc5)[C@H](O)CC[C@]4(C)[C@H]3CC[C@]12C (stereo partly drawn) [Example 34, 4a-(4-carboxybenzyl)cholestan-3a-ol] |  |  |  |  | Emax [2, 7]: 38%; MED [2, 8]: 4.8; RED [2, 7]: 2.1 |
| C/C=C/C[C@@H]1C(=O)CC[C@]2(C)[C@H]3CC[C@]4(C)[C@@H]([C@H](C)CCCC(C)(C)O)CC[C@H]4[C@@H]3CC[C@@H]12 [Example 3, [4a(E),5a]-4-(2-butenyl)-25-hydroxycholestan-3-one] |  | 144 | 2.2 | 0.97 |  |
| CC(C)CCC[C@@H](C)[C@H]1CC[C@H]2[C@@H]3CCC4[C@H](Cc5ccc(OCc6ccccc6)cc5)[C@H](O)CC[C@]4(C)[C@H]3CC[C@]12C (stereo partly drawn) [Example 32, 4a-(4-benzyloxybenzyl)cholestan-3a-ol] |  |  |  |  | Emax [2, 7]: 36%; MED [2, 8]: 8.6; RED [2, 7]: 3.8 |
